Test results taken from US20200383926A1, “ENTERIC COATED PHARMACEUTICAL COMPOSITION AND USE THEREOF” (SHIN ERA TECHNOLOGY CO. LTD., priority 2017, published 2020).

Assay: Phosphate binding assay (molybdate colorimetry, OD700) at pH 8.3
Settings: KH2PO4 0.53M, room temperature (about 25° C.), 2 hours
Procedure: Since the phosphate uptake in human body mostly takes place in the intestine instead of stomach, we tested the phosphate-binding ability of the aforesaid 60% deacetylation chitosan citrate (CHS-60L) and 90% deacetylation chitosan citrate (CHS-90L) in an environment of pH 8.3, which mimicked to the intestine environment in vivo.
Briefly, KH2PO4 and the present chitosan citrate were mixed at room temperature (about 25° C.) for 2 hours. Then, 2 μl of the mixture of each group (and KH2PO4 without reaction with binding agents) was mixed with 120 μl of acetate buffer (0.1 N acetic acid and 0.025 N of CH3COONa), 12 μl of ascorbic acid (1 wt %), and […] of NH4MoO4 (1%, in 0.05 N H2SO4) at room temperature for 20 to 30 minutes. After that, the OD700 of the mixture was detected by spectrometer. The conventional phosphate binding agent, calcium carbonate, was used as positive control of the experiment.

O=C([O-])[O-].[Ca+2] [calcium carbonate]
Binding ability (%) (binding agent 10 mM): 70.90%
Binding ability (%) (binding agent 20 mM): 75.40%
